Test results: PubChem BioAssay (NCI)
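How tested: cells in 96-well plates exposed to compound for 48 hours at five concentrations. Abbreviation: GI50, concentration required for 50% inhibition of growth. The concentration for full growth arrest is given as TGI.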

Key:
Experiment in all cases: DTP human tumour cell line panel, 48 h
[1] = test system: MALME-3M melanoma
[2] = test system: LOX IMVI melanoma
[3] = test system: OVCAR-4 ovarian
[4] = test system: IGROV1 ovarian
[5] = test system: SNB-75 CNS
[6] = test system: MDA-MB-435
[7] = test system: MCF7 breast
[8] = test system: MOLT-4 leukemia
[9] = test system: RXF 393 renal
[10] = test system: A498 renal

Structure (SMILES)	TGI [1] [µM]	TGI [2] [µM]	TGI [3] [µM]	TGI [4] [µM]	TGI [5] [µM]	TGI [6] [µM]	TGI [7] [µM]	TGI [8] [µM]	TGI [9] [µM]	GI50 [2] [µM]	GI50 [4] [µM]	GI50 [6] [µM]	GI50 [10] [µM]	TGI [10] [µM]	GI50 [7] [µM]	GI50 [1] [µM]	GI50 [3] [µM]	GI50 [9] [µM]	GI50 [5] [µM]	GI50 [8] [µM]
C=C(C)C1Cc2cc(C(C)=O)ccc2O1 (centres undefined)	> 100	> 100	> 100	> 100	> 100	> 100	> 100	> 100												
CC(C)(C)CC(C)(C)c1cc2c(O)c(c1)Cc1cc(C(C)(C)CC(C)(C)C)cc(c1O)Cc1cc(C(C)(C)CC(C)(C)C)cc(c1O)Cc1cc(C(C)(C)CC(C)(C)C)cc(c1O)Cc1cc(C(C)(C)CC(C)(C)C)cc(c1O)Cc1cc(C(C)(C)CC(C)(C)C)cc(c1O)Cc1cc(C(C)(C)CC(C)(C)C)cc(c1O)Cc1cc(C(C)(C)CC(C)(C)C)cc(c1O)C2	> 100		> 100	> 100	> 100			> 100	> 100											
CCSc1nc(N)c(C#N)c(-c2ccc(OC)c(OC)c2)c1C#N		48.2		43.6		22.5	> 50			14.9	5.85	3.85	15.8	40.7	10.6					
CC1=CC[C@@H]2C(=O)C=CC=C[C@H]12.[C-]#[O+].[C-]#[O+].[C-]#[O+].[Fe]	> 100	> 100	> 100		> 100			> 100	> 100	> 100			> 100	> 100		> 100	> 100	> 100	43.9	> 100
CCCCCCCCCCCc1cc(=O)c2c(O)cccc2o1	> 100	> 100	> 100	> 100	> 100			> 100	> 100											
CCOc1ccc2c(c1)[n+]([O-])c(-c1ccc([N+](=O)[O-])cc1)c(N)[n+]2[O-]	> 100		> 100	> 100	> 100			> 100	> 100					> 100						
Cc1cc(O)cc(-c2nn(C)cc2-c2cc(N3CCOCC3)nc(-c3cccnc3)n2)c1	40.3	27.3	> 100	72.6	4.49		18.1	> 100	6.51	4.16	4.27		1.06	3.24	1.13	11.6	7.74	1.7	1.48	3.65
Cc1cccc(/C=N/N=C(\N)NO)n1	> 100	52.8	> 100	> 100	80.8			> 100	> 100					> 100						
CC(C)=CC1(C)/C(=N\O)C(C)(CC(C)C)C(=O)N1O (centres undefined)	> 100	> 100	> 100	> 100	> 100			> 100	> 100					> 100						
CC(NNC(=S)N1CCN(c2ccccn2)CC1)c1cccc[n+]1[O-] (centres undefined)		39.1	> 100	> 100	> 100	> 100	> 100	> 100	> 100											
Cc1nc2sc(C(=O)Nc3cccc(Cl)c3C)c(N)c2cc1C(O)c1ccccc1 (centres undefined)	18.5	10.9	26.7	12.7			11.3	19.7		0.0599	0.0532		0.0158	0.059	0.0332	0.0536	0.246			0.0673
COC(=O)CCC(=O)Nc1cc(C)ccc1C	> 100	> 100	> 100	> 100	> 100			> 100	> 100					> 100						
Cc1ccc(Nn2c(SCC(=O)Nc3nc(-c4ccccc4)cs3)nc(C)c2C)cc1	13.6	19.3	> 100	> 100	> 100	9.54		> 100		3.32	4.59	2.66	17.4	> 100		2.48	2.13		2.81	3.46
Fc1cccc(-c2nc(-c3c[nH]c4ncccc34)cs2)c1	> 100	> 100		> 100	42.8	> 100	> 100	> 100	90.8	> 100	8.15	> 100			5.27	5.62		23.1	8.34	> 100
O=C1Nc2cc(-c3ccc(O)cc3)ccc2/C1=C/c1ccc[nH]1	5.28	9.77	> 51.3	7.22	8.35	> 100		> 32.5	2.45	0.0481	0.327	0.0708	1.53	5.05		0.474	0.302	0.826	2.08	0.158
Nc1ncc(-c2ccc3ncnc(N4CCc5cc(F)c(Cl)cc54)c3c2)cc1C(F)(F)F	> 100		27.9		3.59			> 100	1.53							1.44	1.74	0.274	0.308	2.13
NC1=C(/C(N)=N/O)C(c2ccccc2)c2ccc3ccccc3c2O1 (centres undefined)	> 76.1	17.2	> 100	> 64.3			97.4	> 100	0.929	0.621	0.459		0.168	0.72	0.261	2.29	0.831	0.249	0.108	0.496
COc1ccc(/C=C\c2cc(OC)c(OC)c(OC)c2)cc1N/C=C\C(=O)c1c[nH]c2ccccc12	57.2	> 100	> 100	> 100	> 100		> 100	> 100		< 0.01	< 0.01		< 0.01	0.0153	< 0.01	5	< 0.01		< 0.01	< 0.01
